According to US8946439B2, “Amide compounds, compositions and uses thereof” (Evotec AG, priority 2008, dated 2015):
Read-outs that look alike come from different tables or passages of the source.

What was measured:
[1] = target: T1, hP2X3 (Homo sapiens, UniProt P56373); assay: Calcium uptake assay (P2X antagonist assay), P2X3 homomer; type: cell-based; settings: hP2X3
T1 construct: expressed in transfected cells; host or cells: e.g. HEK293 or 1321N1
T1 sequence (P56373 1-397): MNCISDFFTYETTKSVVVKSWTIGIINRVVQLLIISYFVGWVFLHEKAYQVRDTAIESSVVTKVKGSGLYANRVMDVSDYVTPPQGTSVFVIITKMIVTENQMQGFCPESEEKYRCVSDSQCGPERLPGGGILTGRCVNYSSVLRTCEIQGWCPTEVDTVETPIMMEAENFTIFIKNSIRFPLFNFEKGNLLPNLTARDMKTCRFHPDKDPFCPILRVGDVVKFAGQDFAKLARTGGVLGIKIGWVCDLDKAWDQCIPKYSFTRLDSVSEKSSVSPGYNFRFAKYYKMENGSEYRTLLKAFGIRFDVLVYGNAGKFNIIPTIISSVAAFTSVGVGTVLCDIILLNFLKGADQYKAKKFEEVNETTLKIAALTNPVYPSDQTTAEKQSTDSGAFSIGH
Summary of the method: (§1)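 Stably or transiently transfected HEK293 or 1321N1 cells; the heteromer is made by adding P2X3 to a P2X2-stable line, with heteromer function isolated pharmacologically. The peak-minus-baseline FLIPR calcium signal gives % inhibition and a 4-parameter-logistic IC50.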

[2] = target: T2, hP2X2/3H (Homo sapiens, UniProt P56373+Q9UBL9); assay: Calcium uptake assay (P2X antagonist assay), P2X2/3 heteromer; type: cell-based; settings: hP2X2/3H
T2 construct: expressed in transfected cells; host or cells: e.g. HEK293 or 1321N1
T2 sequence (Q9UBL9 1-471): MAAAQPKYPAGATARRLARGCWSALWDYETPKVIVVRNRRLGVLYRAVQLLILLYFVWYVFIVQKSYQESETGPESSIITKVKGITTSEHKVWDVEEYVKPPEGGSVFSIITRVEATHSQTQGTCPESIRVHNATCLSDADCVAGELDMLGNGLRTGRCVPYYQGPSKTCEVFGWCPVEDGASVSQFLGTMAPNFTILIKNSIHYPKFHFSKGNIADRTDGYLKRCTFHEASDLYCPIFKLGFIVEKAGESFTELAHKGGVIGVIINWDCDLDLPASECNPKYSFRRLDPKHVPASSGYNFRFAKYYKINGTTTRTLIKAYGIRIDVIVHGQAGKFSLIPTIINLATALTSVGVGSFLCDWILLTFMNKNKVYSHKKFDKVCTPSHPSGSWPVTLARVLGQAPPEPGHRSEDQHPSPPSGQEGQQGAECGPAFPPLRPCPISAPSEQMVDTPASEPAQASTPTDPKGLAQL
T2 sequence (P56373 1-397): T1 sequence (P56373 1-397)
Summary of the method: as §1

[3] = calcium uptake assay, read-out: IC50 hP2X3 (nM), Ca Influx
[4] = calcium uptake assay, read-out: IC50 hP2X2/3H (nM), Ca Influx
[5] = Ca influx (calcium uptake assay), read-out: IC50 hP2X3
[6] = Ca influx (calcium uptake assay), read-out: IC50 hP2X2/3H

SMILES	IC50 [1, 3]	IC50 [2, 4]	IC50 [1, 5]	IC50 [2, 6]
COc1ncc(CNC(=O)c2cc(C(=O)N3CC(O)C3)cc(-c3ccc(C)cc3)c2)cn1 [Compound 133]	< 100 nM	100 to 500 nM		
Cc1ccc(-c2cc(C(=O)O)cc(C(=O)N[C@@H](C)CO)c2)cc1 [Compound 4]	> 1000 nM	> 1000 nM		
Cc1ccc(-c2cc(C(=O)NCc3ncc(C(F)(F)F)cc3Cl)cc(S(C)(=O)=O)c2)nc1 [Compound 350]			< 100 nM	100 to 500 nM
Cc1ccc(-c2cc(C(=O)NC(C)c3cnccn3)cc(C(=O)N(C)CC(C)C)c2)cc1 (centres unmarked) [Compound 8, N3-Isobutyl-N3,4′-dimethyl-N-5-(1-(pyrazin-2-yl)ethyl)biphenyl-3,5-dicarboxamide]	< 100 nM	100 to 500 nM		
Cc1ccc(-c2cc(C(=O)NCc3ccc(Cl)c(-n4cnnc4)c3)cc(C(=O)N3CCCC3)c2)cc1 [Compound 102]	< 100 nM	< 100 nM		
Cc1ccc(-c2cc(CN3CCN(C)CC3)cc(C(=O)NCc3ccc(C)nc3)c2)nc1 [Compound 244]			100 to 500 nM	501 to 1000 nM
COc1ccc(CNC(=O)c2cc(-c3ccc(C)cc3)cc(S(C)(=O)=O)c2)cn1 [Compound 144]	100 to 500 nM	< 100 nM		
Cc1ncc(CNC(=O)c2cc(C(=O)N3CCCC3)cc(-c3ccc(C(F)(F)F)cc3)c2)cn1 [Compound 54]	> 1000 nM	> 1000 nM		
Cc1ccc(-c2cc(C(=O)NCc3ccc(C(F)(F)F)nc3)cc(C(=O)N3CC(O)C3)c2)c(C#N)c1 [Compound 64]	< 100 nM	< 100 nM		
Cc1ccc(-c2cc(C(=O)N[C@H](C)c3cnc(C)nc3)cc(S(=O)(=O)N3CCCC3)c2)c(C#N)c1 [Compound 147]	< 100 nM	> 1000 nM		
Cc1ccc(-c2cc(S(=O)(=O)N3CCCC3)cc(C(=O)N[C@H](C)c3cnc(C)nc3)c2C)cc1 [Compound 65, (R)-2,4′-Dimethyl-N-(1-(2-methylpyrimidin-5-yl)ethyl)-5-(pyrrolidin-1-ylsulfonyl)biphenyl-3-carboxamide]	100 to 500 nM	> 1000 nM		

Second part, the compound after the results:

IC50 [1, 3]	IC50 [2, 4]	IC50 [1, 5]	IC50 [2, 6]	SMILES
		< 100 nM	< 100 nM	COCC(C)Oc1cc(C(=O)N[C@H](C)c2ccc(C)nc2)cc(-c2ccc(C)cn2)c1 (some centres unmarked) [Compound 328]
		< 100 nM	< 100 nM	Cc1ccc(-c2cc(C(=O)N[C@H](C)c3ccc(C)nc3)cc(C(C)O)c2)c(C#N)c1 (some centres unmarked) [Compound 311]
		< 100 nM	< 100 nM	COCC(CO)Oc1cc(C(=O)N[C@H](C)c2ccc(C)nc2)cc(-c2ccc(C)cc2C#N)c1 (some centres unmarked) [Compound 378]
< 100 nM	< 100 nM			Cc1ccc(-c2cc(C(=O)N[C@H](C)c3ccc(C)nc3)cc(C(=O)N3CC[C@@H](O)C3)c2)nc1 [Compound 178]
< 100 nM	< 100 nM			COC1CCN(C(=O)c2cc(C(=O)NCc3cnc(C)nc3)cc(-c3ccc(C)cc3)c2)C1 (centres unmarked) [Compound 32]
		< 100 nM	100 to 500 nM	Cc1ccc(-c2cc(C(=O)NCc3ccc(C)nc3)cc(C(O)CN3CC(O)C3)c2)cc1 (centres unmarked) [Compound 388]
> 1000 nM	> 1000 nM			Cc1ccc(-c2cc(C(=O)N[C@@H](C)c3ccc(C)nc3)cc(C(=O)N3CCCC3)c2)cc1 [Compound 177]
< 100 nM	< 100 nM			Cc1ccc(-c2cc(C(=O)N[C@H](C)c3ccc(C)nc3)cc(S(C)(=O)=O)c2)cc1 [Compound 171]
		< 100 nM	< 100 nM	COCC(C)Oc1cc(C(=O)NCc2ccc(C)nc2)cc(-c2ccc(C)cc2)c1 (centres unmarked) [Compound 300]
		< 100 nM	< 100 nM	Cc1ccc(-c2cc(OC3CCOC3)cc(C(=O)N[C@H](C)c3ccc(C)nc3)c2)nc1 (some centres unmarked) [Compound 333]
< 100 nM	< 100 nM			Cc1ccc(-c2cc(C(=O)N[C@H](C)c3cnc(C)nc3)cc(C(=O)N3CCC3)c2)cc1 [Compound 78]
100 to 500 nM	< 100 nM			Cc1ccc(-c2cc(C(=O)N[C@H](C)c3ccc(C)nc3)cc(S(=O)(=O)CC(C)C)c2)cc1 [Compound 196]
		< 100 nM	< 100 nM	Cc1ccc(-c2cc(OC3CCOC3)cc(C(=O)N[C@H](C)c3ccc(C)nc3)c2)cc1 (stereo partly drawn) [Compound 308, 4′-Methyl-N—((R)-1-(6-methylpyridin-3-yl)ethyl)-5-(tetrahydrofuran-3-yloxy)biphenyl-3-carboxamide]
		< 100 nM	< 100 nM	Cc1ccc(-c2cc(Oc3nc(Cl)cs3)cc(C(=O)N[C@H](C)c3ccc(C)nc3)c2)nc1 [Compound 384]
